Data taken from patent publication US20130142877A1, “PHARMACEUTICAL DOSAGE FORM COMPRISING ONE OR MORE ANTIRETROVIRAL ACTIVE INGREDIENTS” (EVONIK ROEHM GmbH, priority 2010, published 2013).

Assay: Crystallinity analysis by X-ray diffraction (XRD)
Type: physicochemical
Details: pure API or extrudate after melt extrusion
Experimental: The mixtures of examples 1 to 4 were extrudated, comminuted and subsequently sifted through a sieve of 40 mesh (0.42 mm) and analyzed. X-ray diffraction analysis was carried out for crytallinity. Dissolution rate analysis of both active compound was carried out to check solubility enhancement.

Compound | Crystallinity by X-ray diffraction (XRD pattern)
Cc1cccc(C)c1OCC(=O)N[C@@H](Cc1ccccc1)[C@@H](O)C[C@H](Cc1ccccc1)NC(=O)[C@H](C(C)C)N1CCCNC1=O [Lopinavir] | crystalline form
CC(C)c1nc(CN(C)C(=O)N[C@H](C(=O)N[C@@H](Cc2ccccc2)C[C@H](O)[C@H](Cc2ccccc2)NC(=O)OCc2cncs2)C(C)C)cs1 [Ritonavir] | crystalline form
